This note sets out measurements from US9238034B2, “FN14 antagonists and therapeutic uses thereof” (THE TRANSLATIONAL GENOMICS RESEARCH INSTITUTE, priority 2013, dated 2016).

In one experiment the target is T1, Fn14-TWEAK binding (Homo sapiens, UniProt Q9NP84).
T1 construct: the human Fc fragment-tagged Fn14 extracellular domain (R&D Systems) was captured; purchased R&D Systems (Fn14-Fc); Peprotech (recombinant TWEAK)
T1 sequence (Q9NP84 28-80 limits assumed): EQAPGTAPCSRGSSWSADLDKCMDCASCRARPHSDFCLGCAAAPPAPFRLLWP
In words: Double sandwich ELISA small molecule screening of TWEAK binding to captured Fn14-Fc. The method, then:
Double Sandwich ELISA. sTWEAK and sTWEAK variant proteins were synthesized as described above. The expression level of each IVTT synthesized sTWEAK protein was analyzed by western blot analysis and used in approximately equal amounts in the ELISA. To assay the binding of wild type sTWEAK and sTWEAK variants to Fn14, the human Fc fragment-tagged Fn14 extracellular domain (R&D Systems) was captured in an Immuno 96-microwell white plate by adding 100 μL of 0.025 μg/mL Fn14-Fc to wells coated with goat anti-human Fcγ fragment specific monoclonal antibody. After capture, the wells were washed 3× with Dulbecco's Phosphate Buffered Saline (DPBS) containing 0.05% Tween-20. Unbound sites were blocked by addition of 100 μL of blocking solution containing 0.05% Tween-20, 1% BSA, and 3% normal goat serum (NGS) in DPBS for 1 hr at room temperature. 0.01 μL of sTWEAK or sTWEAK variant made with the human IVTT kit or 2 μL of sTWEAK or sTWEAK variant made with the rabbit IVTT kit was diluted in 100 μL of sample diluent (DPBS+1% BSA+0.005% Tween-20) and then added to the wells for 2 hr followed by addition of 100 μL of 50 ng/mL biotinylated TWEAK detection antibody (R&D Systems) in sample diluent. Following incubation for additional 2 hr at room temperature, wells were washed 3× with DPBS containing 0.05% Tween-20 and bound biotinylated TWEAK antibody was detected by incubation with an HRP-conjugated streptavidin. The total luminescent signal was obtained using Femto ELISA kit (Pierce Biochemical) and compared to the standard curve signal obtained from the binding of 0-4000 pg/mL recombinant TWEAK (Peprotech inc) to Fn14-Fc. Using 5-parameter logistic curve fitting for standard curve analysis (Sigmaplot 11.0, SyStat Software Inc.), binding of sTWEAK or TWEAK variant to Fn14-Fc was determined. The data represents that observed for at least four replicate assays.
The small molecule screening was performed using the ELISA assay described above with minor modifications. Briefly, after capturing Fn14-Fc in the microwell plate, 80 μl of drug solution in sample diluent was added to desired wells and incubated for 2 hrs at room temperature. Subsequently, 20 μL of 2500 pg/mL (5×) TWEAK was added to each well to achieve final TWEAK concentration of 500 pg/mL and incubated for additional 2 hr at room temperature. Bound TWEAK was detected as described in the protocol above. All small molecule inhibitors were screened at 25 μM final concentration (final DMSO concentration of 0.125%) in duplicate. Cyclohexamide, a non-specific small molecule, at 25 μM concentration was used as negative control. The anti-Fn14 antibody ITEM-4, added at 2.5 μg/mL, was used as a positive control for complete blockade of TWEAK binding. Reduction in TWEAK binding due to compound addition or controls was calculated by using standard curve (Separate standard curve was obtained for every screening plate).
For orientation: An ELISA detects its analyte on a solid surface through an enzyme-linked reagent.

The subject of experiment [1] is TWEAK-Fn14 signaling pathway. The experiment in a line: TWEAK induced Fn14-NF-κB Luc assay, optimized 384-well HTS format. The format is cell-based, human. Particulars: 1000 cells/well, 40 ng/mL TWEAK 8 hr, 1 hr pre-incubation. From the text:
Human embryonic kidney cells (HEK293) express low levels of the Fn14 receptor. We developed a cell-based assay for the Fn14-TWEAK pathway signaling events using HEK293 cells that stably co-expresses high levels of full length Fn14 receptor and a firefly luciferase reporter driven by NF-KB-response elements (Fn14-NF-KB-Luc).
We optimized HEK293 Fn14-NF-KB Luc cell line for HTS by testing TWEAK-stimulated Luc-reporting as a function of growth medium, TWEAK concentration, induction time, assay duration, cell density, and DMSO concentration. For example, we seeded HEK293 Fn14-NF-KB-Luc and control cells (HEK293 NFKB-Luc) into a 96-well plate at a density of 10,000 cells/well, in DMEM or Opti-MEM® (Reduced serum media, protein concentration 15 μg/mL) and incubated at 37 C for 24 or 48 h. We then induced them with various concentrations of TWEAK in buffer or buffer alone (PBS+1 mg/mL BSA) for 5 hr and then measured firefly luciferase levels by chemiluminescence (Bright-Glo™ Promega). […] These initial conditions formed the basis for transfer of the assay into a 384-well format and further optimization with respect to cell seeding density, induction time, and TWEAK concentration.
We achieved the same conclusion from both 96-well and 384-well format that signal-to-background and fold-inductions are increased with increasing TWEAK concentration, peaking between 40-80 ng/mL and decreased at 100 ng/mL (FIGS. 20A and 20B). […] These conditions were further refined with respect to cell density (500-2500 cells per well), induction time (4-8 hr), and two TWEAK concentrations over a series of experiments in 384-well formats.
In the majority of seeding density conditions and two different TWEAK concentrations, the assay performance improved with increasing TWEAK induction time. At 8 hours of TWEAK stimulation, the fold induction (S/B) and Z′ factor was approximately 8-fold and 0.8, respectively, and the average % CV was 6.8%. […]

The mark [2] stands for this setting: Table 3, first round of screening, 25 μM, average of duplicate, read-out: % Reduction in TWEAK Binding, Average.
The mark [3] stands for this setting: Table 3, first round of screening, 25 μM, replicate 1, read-out: % Reduction in TWEAK Binding, Data 1.
Setting [4] is: Table 3, first round of screening, 25 μM, replicate 2, read-out: % Reduction in TWEAK Binding, Data 2.
[5] abbreviates: Table 5, 25 μM, average of duplicate, read-out: % Reduction in TWEAK Binding, Average.
The mark [6] stands for this setting: Table 5, 25 μM, replicate 1, read-out: % Reduction in TWEAK Binding, Data 1.
Where [7] appears, read: Table 5, 25 μM, replicate 2, read-out: % Reduction in TWEAK Binding, Data 2.
Setting [8] is: first round of screening, 25 μM, read-out: average inhibition in TWEAK-Fn14 binding.
The mark [9] stands for this setting: Table 4, second screening iteration, 25 μM, average of duplicate, read-out: % Reduction in TWEAK Binding, Average.
Where [10] appears, read: Table 4, second screening iteration, 25 μM, replicate 1, read-out: % Reduction in TWEAK Binding, Data 1.
Where [11] appears, read: Table 4, second screening iteration, 25 μM, replicate 2, read-out: % Reduction in TWEAK Binding, Data 2.

Where two headings read alike, the source gives them in different places.

Consider `O=C(CSc1nc2c(cnn2-c2ccccc2)c(=O)[nH]1)NCc1ccc2c(c1)OCO2` [Compound G873-0032], for which the inhibition at 25 µM came out at 20.4% at Fn14-TWEAK binding (setting [2]); 26.3% at Fn14-TWEAK binding (setting [3]); 14.5% at Fn14-TWEAK binding (setting [4]); 20.4% at Fn14-TWEAK binding (setting [5]); 26.3% on Fn14-TWEAK binding (setting [6]); 14.5% on Fn14-TWEAK binding (setting [7]). Moreover, the inhibition at 25 µM on Fn14-TWEAK binding (setting [8]) was greater than 15%.

Consider `Cc1cc(C2CCCN2C(=O)c2cc(-c3ccc4c(c3)OCO4)on2)on1` (stereo not shown) [Compound J004-1091], for which the inhibition at 25 µM at Fn14-TWEAK binding (setting [2]) came to 15%; at Fn14-TWEAK binding (setting [3]), 23.1%; at Fn14-TWEAK binding (setting [4]), 6.98%; at Fn14-TWEAK binding (setting [5]), 15%; on Fn14-TWEAK binding (setting [6]), 23.1%; at Fn14-TWEAK binding (setting [7]), 6.98%. In addition, on Fn14-TWEAK binding (setting [8]), the inhibition at 25 µM was greater than 15%.

On to `COc1cccc(NC(=O)CSc2nnc(-c3ccc(F)cc3)c(-c3ccc(F)cc3)n2)c1` [Compound K216-0906], for which the inhibition at 25 µM was 16.6% on Fn14-TWEAK binding (setting [9]); 17.2% at Fn14-TWEAK binding (setting [10]); 16% at Fn14-TWEAK binding (setting [11]); 16.6% on Fn14-TWEAK binding (setting [5]); 17.2% at Fn14-TWEAK binding (setting [6]); 16% on Fn14-TWEAK binding (setting [7]).

Consider `COc1cccc(NC(=O)CSc2nnc(-c3ccc(Cl)cc3)c(-c3ccc(Cl)cc3)n2)c1` [Compound K216-0957], for which the inhibition at 25 µM at Fn14-TWEAK binding (setting [9]) stood at 24%; on Fn14-TWEAK binding (setting [10]), 23.8%; at Fn14-TWEAK binding (setting [11]) it was 24.3%; on Fn14-TWEAK binding (setting [5]) it was 24%; at Fn14-TWEAK binding (setting [6]), 23.8%; at Fn14-TWEAK binding (setting [7]), 24.3%.

On to `O=C(CSc1nnc(-c2ccccc2)c(-c2ccccc2)n1)Nc1cccc(Cl)c1` [Compound K784-2268], for which the inhibition at 25 µM was found to be 17% at Fn14-TWEAK binding (setting [9]); 24% at Fn14-TWEAK binding (setting [10]); 10.1% at Fn14-TWEAK binding (setting [11]); 17% at Fn14-TWEAK binding (setting [5]); 24% at Fn14-TWEAK binding (setting [6]); 10.1% on Fn14-TWEAK binding (setting [7]).

With `O=C(CSc1nnc(-c2ccccc2)c(-c2ccccc2)n1)Nc1ccccc1Cl` [Compound K784-2269], at Fn14-TWEAK binding (Table 4, second screening iteration, 25 μM, average of duplicate), the “% Reduction in TWEAK Binding, Average” value stood at 9.52%. In addition, on Fn14-TWEAK binding (Table 4, second screening iteration, 25 μM, replicate 1), the “% Reduction in TWEAK Binding, Data 1” value came to 10.8055%. The “% Reduction in TWEAK Binding, Data 2” value at Fn14-TWEAK binding (Table 4, second screening iteration, 25 μM, replicate 2) came out at 8.234%.

`COc1cccc(NC(=O)CSc2nnc(-c3ccccc3)c(-c3ccccc3)n2)c1` [Compound K784-2273]: the inhibition at 25 µM at Fn14-TWEAK binding (setting [9]), on Fn14-TWEAK binding (setting [10]), at Fn14-TWEAK binding (setting [5]) and at Fn14-TWEAK binding (setting [6]) was 10.5% each time.

With `O=C(c1cn(-c2cccc(Cl)c2)nn1)N1CCCC1` [Compound L524-0322], the inhibition at 25 µM on Fn14-TWEAK binding (setting [9]) was 11.6%; on Fn14-TWEAK binding (setting [10]), 17%; on Fn14-TWEAK binding (setting [11]), 6.27%; at Fn14-TWEAK binding (setting [5]), 11.6%; at Fn14-TWEAK binding (setting [6]), 17%; on Fn14-TWEAK binding (setting [7]) it was 6.27%.

Consider `O=C(NC1CC1)c1cn(-c2cccc(Cl)c2)nn1` [Compound L524-0361], for which the inhibition at 25 µM amounted to 15.7% on Fn14-TWEAK binding (setting [9]); 14.7% at Fn14-TWEAK binding (setting [10]); 16.7% at Fn14-TWEAK binding (setting [11]); 15.7% at Fn14-TWEAK binding (setting [5]); 14.7% on Fn14-TWEAK binding (setting [6]); 16.7% on Fn14-TWEAK binding (setting [7]).

In the case of `NC(=O)C1CCCN(c2nc3c(-c4ccccc4)csc3c(=O)[nH]2)C1` (stereo not shown) [Compound Z250-1266], the inhibition at 25 µM was 11.8% at Fn14-TWEAK binding (setting [2]); 16.2% at Fn14-TWEAK binding (setting [3]); 7.41% on Fn14-TWEAK binding (setting [4]); 11.8% on Fn14-TWEAK binding (setting [5]); 16.2% at Fn14-TWEAK binding (setting [6]); 7.41% at Fn14-TWEAK binding (setting [7]).

In the case of `Cc1ccc(-c2csc3c(=O)[nH]c(N4CCCC(C(N)=O)C4)nc23)cc1` (stereo not shown) [Compound Z250-1348], the inhibition at 25 µM was found to be 13.3% on Fn14-TWEAK binding (setting [2]); 16.6% on Fn14-TWEAK binding (setting [3]); 9.99% at Fn14-TWEAK binding (setting [4]); 13.3% on Fn14-TWEAK binding (setting [5]); 16.6% on Fn14-TWEAK binding (setting [6]); 9.99% on Fn14-TWEAK binding (setting [7]).

As for `C[C@@H]1C[C@H]2[C@@H]3CCC4=CC(=O)C=C[C@]4(C)[C@@]3(F)[C@@H](O)C[C@]2(C)[C@@]1(O)C(=O)CO` [Dexamethasone, dexamethasone], the “effect on TWEAK induced Fn14-NF-κB Luc signal” value in experiment [1] was “no effect”.
